Measured values reported in US4861788A, “Antibacterial 1-normon-2-yl-heterocyclic compounds” (Beecham Group plc, priority 1983, dated 1989).
Values after ≈ are worked out from the molar mass of the structure shown. Where two headings read alike, the source gives them in different places.

Tests used:
[1] = test system: M. hyopneumoniae NB12; experiment: MIC against Mycoplasma in vitro (Friis broth with agarose); type: cell-based; conditions: Mesomycoplasma hyopneumoniae
[2] = test system: M. hyopneumoniae HK (2); experiment: as above; type: cell-based; conditions: Mesomycoplasma hyopneumoniae, 144 h
[3] = test system: M. hyopneumoniae Str. 11; experiment: as above; type: cell-based; conditions: Mesomycoplasma hyopneumoniae, 144 h; M. hyopneumoniae Str. 11; 6 days at 37° C; read-out: MIC
[4] = test system: M. hyopneumoniae J2206/183^b; experiment: as above; type: cell-based; conditions: Mesomycoplasma hyopneumoniae, 144 h; M. hyopneumoniae J2206/183^b; 6 days at 37° C; read-out: MIC
[5] = test system: M. hyopneumoniae LABER; experiment: as above; type: cell-based; conditions: Mesomycoplasma hyopneumoniae, 144 h; M. hyopneumoniae LABER; 6 days at 37° C; read-out: MIC
[6] = test system: M. hyopneumoniae NCTC 101101; experiment: as above; type: cell-based; conditions: Mesomycoplasma hyopneumoniae, NCTC101101, 144 h
[7] = test system: Bacillus subtilis 6633; experiment: MIC against human bacteria in vitro (nutrient agar, chocolated horse blood); type: cell-based; conditions: human; Bacillus subtilis 6633; 18 hours at 37° C; read-out: MIC
Method: (§1) The activity of the normonyl derivaties of the Examples against various bacteria which are important in diseases of humans, was assayed in vitro using serial dilutions in nurient agar with 5% chocolated horse blood.

[8] = test system: Corynebacterium xerosis 9755; experiment: as above; type: cell-based
Method: as §1

[9] = test system: E. coli ESS; experiment: as above; type: cell-based; conditions: Escherichia coli; human; E. coli ESS; 18 hours at 37° C; read-out: MIC
Method: as §1

[10] = test system: E. coli NCTC 10418; experiment: as above; type: cell-based; conditions: Escherichia coli
Method: as §1

[11] = test system: Haemophilus influenzae Wy21; experiment: as above; type: cell-based
Method: as §1

[12] = test system: K. aerogenes A; experiment: as above; type: cell-based; conditions: Klebsiella aerogenes
Method: as §1

[13] = test system: Neisseria catarrhalis 1502; experiment: as above; type: cell-based
Method: as §1

[14] = test system: P. mirabilis 889; experiment: as above; type: cell-based
Method: as §1

[15] = test system: Pasteurella multocida 1633; experiment: as above; type: cell-based; conditions: human; Pasteurella multocida 1633; 18 hours at 37° C; read-out: MIC
Method: as §1

[16] = test system: Ps. aeruginosa NCTC 10662; experiment: as above; type: cell-based; conditions: Pseudomonas aeruginosa
Method: as §1

[17] = test system: Staph. aureus Oxford; experiment: as above; type: cell-based; conditions: Staphylococcus aureus; human; Staph. aureus Oxford; 18 hours at 37° C; read-out: MIC
Method: as §1

[18] = test system: Staph. aureus Russell; experiment: as above; type: cell-based; conditions: Staphylococcus aureus; human; Staph. aureus Russell; 18 hours at 37° C; read-out: MIC
Method: as §1

[19] = test system: Staph. aureus W2827; experiment: as above; type: cell-based; conditions: Staphylococcus aureus; human; Staph. aureus W2827; 18 hours at 37° C; read-out: MIC
Method: as §1

[20] = test system: Strep. agalactiae 2788-B; experiment: as above; type: cell-based; conditions: Streptococcus agalactiae
Method: as §1

[21] = test system: Strep. faecalis I; experiment: as above; type: cell-based; conditions: Enterococcus faecalis
Method: as §1

[22] = test system: Strep. pneumoniae CN33; experiment: as above; type: cell-based; conditions: Streptococcus pneumoniae
Method: as §1

[23] = test system: Strep. pyogenes R80/421-A; experiment: as above; type: cell-based; conditions: Streptococcus pyogenes
Method: as §1

[24] = test system: Strep. spp. 64/848-C; experiment: as above; type: cell-based; conditions: human; Strep. spp. 64/848-C; 18 hours at 37° C; read-out: MIC
Method: as §1

[25] = test system: Strep. dysgalactiae SPD1; experiment: MIC against veterinary bacteria in vitro (Diagnostic Sensitivity Test Agar); conditions: Streptococcus dysgalactiae, SPD1, 18 h
Method: The activity of the normonyl derivatives of the Examples against various veterinarily important bacteria, was assayed in vitro using two-fold serial dilutions in Diagnostic Sensitivity Test Agar inoculated with 10^4 organisms.

[26] = test system: M. hyopneumoniae PW/C/210; experiment: MIC against Mycoplasma in vitro (Friis broth with agarose); type: cell-based; conditions: Mesomycoplasma hyopneumoniae, 144 h; M. hyopneumoniae PW/C/210; 6 days at 37° C; read-out: MIC
[27] = test system: Haemophilus influenzae Q1; experiment: MIC against human bacteria in vitro (nutrient agar, chocolated horse blood); type: cell-based; conditions: human; Haemophilus influenzae Q1; 18 hours at 37° C; read-out: MIC
Method: as §1

[28] = test system: Sarcina lutea 8340; experiment: as above; type: cell-based
Method: as §1

[29] = 144 h, M. hyopneumoniae NB12, 6 days at 37° C, read-out: MIC
[30] = M. hyopneumoniae HK (2), 6 days at 37° C, read-out: MIC
[31] = M. hyopneumoniae NCTC 101101, 6 days at 37° C, read-out: MIC
[32] = human, Corynebacterium xerosis 9755, 18 hours at 37° C, read-out: MIC
[33] = NCTC10418, human, E. coli NCTC 10418, 18 hours at 37° C, read-out: MIC
[34] = human, Haemophilus influenzae Wy21, 18 hours at 37° C, read-out: MIC
[35] = human, K. aerogenes A, 18 hours at 37° C, read-out: MIC
[36] = human, Neisseria catarrhalis 1502, 18 hours at 37° C, read-out: MIC
[37] = Proteus mirabilis, human, P. mirabilis 889, 18 hours at 37° C, read-out: MIC
[38] = NCTC10662, human, Ps. aeruginosa NCTC 10662, 18 hours at 37° C, read-out: MIC
[39] = human, Strep. agalactiae 2788-B, 18 hours at 37° C, read-out: MIC
[40] = human, Strep. faecalis I, 18 hours at 37° C, read-out: MIC
[41] = human, Strep. pneumoniae CN33, 18 hours at 37° C, read-out: MIC
[42] = human, Strep. pyogenes R80/421-A, 18 hours at 37° C, read-out: MIC

Row | Structure (SMILES) | MIC [1, 29] [µg/mL] | MIC [3] [µg/mL] | MIC [4] [µg/mL] | MIC [5] [µg/mL] | MIC [6, 31] [µg/mL] | MIC [7] [µg/mL] | MIC [8, 32] [µg/mL] | MIC [9] [µg/mL] | MIC [10, 33] [µg/mL] | MIC [11, 34] [µg/mL] | MIC [12, 35] [µg/mL] | MIC [13, 36] [µg/mL] | MIC [14, 37] [µg/mL] | MIC [15] [µg/mL] | MIC [16, 38] [µg/mL] | MIC [17] [µg/mL] | MIC [18] [µg/mL] | MIC [19] [µg/mL] | MIC [24] [µg/mL] | MIC [25] [µg/mL] | also measured
1 | CC(=Cc1nnnn1CCCCCCCCC(=O)O)CC1OCC(CC2OC2C(C)C(C)O)C(O)C1O (stereo not shown) [Example 14, Sodium 1-(8-carboxylatooctyl)-5-(1-normon-2-yl)-1H-tetrazole A] | > 10 | > 10 | > 10 | > 10 | > 10 | > 128 | > 128 | > 128 | > 128 | 128 | > 128 | > 128 | > 128 | 64 | > 128 | > 128 | > 128 | > 128 | > 128 | > 80 | MIC [2, 30]: > 10 µg/mL; MIC [20, 39]: > 128 µg/mL; MIC [21, 40]: > 128 µg/mL; MIC [22, 41]: > 128 µg/mL; MIC [23, 42]: > 128 µg/mL
2 | CC(=Cc1nnc(-c2cccc([N+](=O)[O-])c2)o1)CC1OCC(CC2OC2C(C)C(C)O)C(O)C1O (stereo not shown) [Example 2, 2-m-Nitrophenyl-5-(1-normon-2-yl)-1,3,4-oxadiazole A] | – | 0.025 (≈ 0.0511 µM) | 0.025 (≈ 0.0511 µM) | 0.025 (≈ 0.0511 µM) | – | 4 (≈ 8.17 µM) | > 128 | 4 (≈ 8.17 µM) | > 128 | – | > 128 | – | > 128 | 2 (≈ 4.09 µM) | > 128 | 16 (≈ 32.7 µM) | 64 (≈ 131 µM) | 64 (≈ 131 µM) | 32 (≈ 65.4 µM) | 5 (≈ 10.2 µM) | MIC ([1]; NB12, 144 h): 0.05 µg/mL (≈ 0.102 µM); MIC [2]: 0.05 µg/mL (≈ 0.102 µM); MIC [6]: 0.05 µg/mL (≈ 0.102 µM); MIC ([11]; Haemophilus influenzae, WY21, 18 h): 0.5 µg/mL (≈ 1.02 µM); MIC ([13]; Neisseria, 1502, 18 h): 0.5 µg/mL (≈ 1.02 µM); MIC [20, 39]: 32 µg/mL (≈ 65.4 µM); MIC [21, 40]: > 128 µg/mL; MIC [22, 41]: 32 µg/mL (≈ 65.4 µM); MIC [23, 42]: 4 µg/mL (≈ 8.17 µM)
3 | CC(=Cc1nnnn1Cc1ccc([N+](=O)[O-])cc1)CC1OCC(CC2OC2C(C)C(C)O)C(O)C1O (stereo not shown) [Example 12, 1-(p-Nitrobenzyl)-5-(1-normon-2-yl)tetrazole A] | 5 (≈ 9.93 µM) | 2.5 (≈ 4.96 µM) | 5 (≈ 9.93 µM) | – | 5 (≈ 9.93 µM) | 100 (≈ 199 µM) | ≥ 100 | 100 (≈ 199 µM) | > 100 | 2.5 (≈ 4.96 µM) | > 100 | 10 (≈ 19.9 µM) | > 100 | 5 (≈ 9.93 µM) | > 100 | 100 (≈ 199 µM) | ≥ 100 | 100 (≈ 199 µM) | 100 (≈ 199 µM) | > 80 | MIC [2, 30]: 5 µg/mL (≈ 9.93 µM); MIC [26]: 2.5 µg/mL (≈ 4.96 µM); MIC [27]: 1 µg/mL (≈ 1.99 µM); MIC ([28]; Micrococcus luteus, human, Sarcina lutea 8340, 18 hours at 37° C, read-out: MIC): ≥ 100 µg/mL; MIC [20, 39]: 50 µg/mL (≈ 99.3 µM); MIC [21, 40]: > 100 µg/mL; MIC [22, 41]: 100 µg/mL (≈ 199 µM); MIC [23, 42]: 50 µg/mL (≈ 99.3 µM)
4 | COC(=O)CCCCCCCCn1nnnc1C=C(C)CC1OCC(CC2OC2C(C)C(C)O)C(O)C1O (stereo not shown) [Example 13, 1-(8-Methoxycarbonyloctyl)-5-(1-normon-2-yl)-1H-tetrazole A] | > 10 | > 10 | > 10 | > 10 | > 10 | > 64 | > 64 | > 64 | > 64 | 16 (≈ 29.7 µM) | > 64 | 64 (≈ 119 µM) | > 64 | 64 (≈ 119 µM) | > 64 | > 64 | > 64 | > 64 | > 64 | > 80 | MIC [2, 30]: > 10 µg/mL; MIC [26]: > 10 µg/mL; MIC [20, 39]: > 64 µg/mL; MIC [21, 40]: > 64 µg/mL; MIC [22, 41]: > 64 µg/mL; MIC [23, 42]: > 64 µg/mL
5 | CC(=Cc1nnc(-c2ccccc2)o1)CC1OCC(CC2OC2C(C)C(C)O)C(O)C1O (stereo not shown) [Example 1, 2-(1-Normon-2-yl)-5-phenyl-1,3,4-oxadiazole A] | 2.5 (≈ 5.62 µM) | 2.5 (≈ 5.62 µM) | 5 (≈ 11.2 µM) | 2.5 (≈ 5.62 µM) | 5 (≈ 11.2 µM) | 5 (≈ 11.2 µM) | – | 10 (≈ 22.5 µM) | – | 2.5 (≈ 5.62 µM) | – | 2.5 (≈ 5.62 µM) | – | 2.5 (≈ 5.62 µM) | – | 10 (≈ 22.5 µM) | 25 (≈ 56.2 µM) | 25 (≈ 56.2 µM) | 25 (≈ 56.2 µM) | 10 (≈ 22.5 µM) | MIC [26]: 2.5 µg/mL (≈ 5.62 µM); MIC ([8]; Corynebacterium xerosis, 9755, 18 h): > 100 µg/mL; MIC ([10]; NCTC10418, 18 h): > 100 µg/mL; MIC [27]: 2.5 µg/mL (≈ 5.62 µM); MIC ([12]; 18 h): > 100 µg/mL; MIC ([14]; Proteus mirabilis, 889, 18 h): > 100 µg/mL; MIC ([16]; NCTC10662, 18 h): > 100 µg/mL; MIC ([28]; Micrococcus luteus, 8340, 18 h): > 100 µg/mL; MIC ([20]; 2788B, 18 h): 100 µg/mL (≈ 225 µM); MIC ([21]; 18 h): > 100 µg/mL; MIC ([22]; CN33, 18 h): 100 µg/mL (≈ 225 µM); MIC ([23]; R80/421A, 18 h): 100 µg/mL (≈ 225 µM)
